# Assay results taken from PubChem BioAssay AID2060893 (Molecular Pharmacology Branch, DTP, NCI, 2025).
# pIC50: −log10 of the molar value.
# System: K86415-001-R-J1-PDC complex spheroids, viability
# Assay: Anticancer human tumor K86415-001-R-J1-PDC patient-derived lung adenocarcinoma cell line growth inhibition [RAS]
# Details: for viability, T/C: stronger effect = lower value
# Procedure, shortened: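 Agents were tested in combination matrices in half-log decrements from a top concentration at or near clinical Cmax (10 microM if undetermined). Targets were multi-cell spheroids of tumour lines plus HUVEC and MSC stromal cells.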
# [1] = curve of first compound, second compound 0.000949 µM
# [2] = curve of first compound, second compound 0.003 µM
# [3] = curve of first compound, second compound 0.00949 µM
# [4] = curve of first compound, second compound 0.03 µM
# [5] = curve of first compound, second compound 0.0949 µM
# [6] = curve of first compound, second compound 0.3 µM
# [7] = second compound 0.000949 µM, first compound 0.00316 µM
# [8] = second compound 0.000949 µM, first compound 0.01 µM
# [9] = second compound 0.000949 µM, first compound 0.0316 µM
# [10] = second compound 0.000949 µM, first compound 0.1 µM
# [11] = second compound 0.000949 µM, first compound 0.316 µM
# [12] = second compound 0.000949 µM, first compound 1 µM
# [13] = second compound 0.003 µM, first compound 0.00316 µM
# [14] = second compound 0.003 µM, first compound 0.01 µM
# [15] = second compound 0.003 µM, first compound 0.0316 µM
# [16] = second compound 0.003 µM, first compound 0.1 µM
# [17] = second compound 0.003 µM, first compound 0.316 µM
# [18] = second compound 0.003 µM, first compound 1 µM
# [19] = second compound 0.00949 µM, first compound 0.00316 µM
# [20] = second compound 0.00949 µM, first compound 0.01 µM
# [21] = second compound 0.00949 µM, first compound 0.0316 µM
# [22] = second compound 0.00949 µM, first compound 0.1 µM
# [23] = second compound 0.00949 µM, first compound 0.316 µM
# [24] = second compound 0.00949 µM, first compound 1 µM
# [25] = second compound 0.03 µM, first compound 0.00316 µM
# [26] = second compound 0.03 µM, first compound 0.01 µM
# [27] = second compound 0.03 µM, first compound 0.0316 µM
# [28] = second compound 0.03 µM, first compound 0.1 µM
# [29] = second compound 0.03 µM, first compound 0.316 µM
# [30] = second compound 0.03 µM, first compound 1 µM
# [31] = second compound 0.0949 µM, first compound 0.00316 µM
# [32] = second compound 0.0949 µM, first compound 0.01 µM
# [33] = second compound 0.0949 µM, first compound 0.0316 µM
# [34] = second compound 0.0949 µM, first compound 0.1 µM
# [35] = second compound 0.0949 µM, first compound 0.316 µM
# [36] = second compound 0.0949 µM, first compound 1 µM
# [37] = second compound 0.3 µM, first compound 0.00316 µM
# [38] = second compound 0.3 µM, first compound 0.01 µM
# [39] = second compound 0.3 µM, first compound 0.0316 µM
# [40] = second compound 0.3 µM, first compound 0.1 µM
# [41] = second compound 0.3 µM, first compound 0.316 µM
# [42] = second compound 0.3 µM, first compound 1 µM
# 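Also: spheroids exposed to agents for seven days before readout.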
smiles,measurement,setting,value
Nc1ccn(C2OC(CO)C(O)C2(F)F)c(=O)n1 (stereo unspecified) + CCn1c(-c2cc(N3CCN(C)CC3)cnc2C(C)OC)c2c3cc(ccc31)-c1csc(n1)CC(NC(=O)C1CC1C)C(=O)N1CCCC(N1)C(=O)OCC(C)(C)C2,pIC50,[1],> 8.50
same,pIC50,[2],> 8.50
same,pIC50,[3],> 8.50
same,pIC50,[4],> 8.50
same,pIC50,[5],> 8.50
same,pIC50,[6],> 8.50
same,"viability, T/C",[7],47%
same,"viability, T/C",[8],45.2%
same,"viability, T/C",[9],34%
same,"viability, T/C",[10],26.3%
same,"viability, T/C",[11],21.8%
same,"viability, T/C",[12],16.3%
same,"viability, T/C",[13],24.2%
same,"viability, T/C",[14],19.4%
same,"viability, T/C",[15],18.2%
same,"viability, T/C",[16],19.3%
same,"viability, T/C",[17],15.4%
same,"viability, T/C",[18],11.8%
same,"viability, T/C",[19],11.9%
same,"viability, T/C",[20],8.79%
same,"viability, T/C",[21],10.1%
same,"viability, T/C",[22],13.8%
same,"viability, T/C",[23],9.53%
same,"viability, T/C",[24],9.18%
same,"viability, T/C",[25],6.18%
same,"viability, T/C",[26],6.2%
same,"viability, T/C",[27],6.46%
same,"viability, T/C",[28],5.05%
same,"viability, T/C",[29],3.47%
same,"viability, T/C",[30],4.42%
same,"viability, T/C",[31],4.43%
same,"viability, T/C",[32],4.18%
same,"viability, T/C",[33],4.08%
same,"viability, T/C",[34],3.58%
same,"viability, T/C",[35],2.79%
same,"viability, T/C",[36],2.41%
same,"viability, T/C",[37],3.51%
same,"viability, T/C",[38],3.18%
same,"viability, T/C",[39],3.3%
same,"viability, T/C",[40],2.52%
same,"viability, T/C",[41],3.52%
same,"viability, T/C",[42],2.26%
Nc1ccn(C2OC(CO)C(O)C2(F)F)c(=O)n1 (stereo unspecified) + CCn1c(-c2cccnc2C(C)OC)c2c3cc(ccc31)N1CCOC(CC(NC(=O)C(C(C)C)N(C)C(=O)C3(F)CCN(C(=O)C#CC(C)(C)N(C)C)CC3)C(=O)N3CCCC(N3)C(=O)OCC(C)(C)C2)C1,pIC50,[1],> 8.50
same,pIC50,[2],> 8.50
same,pIC50,[3],> 8.50
same,pIC50,[4],> 8.50
same,pIC50,[5],> 8.50
same,pIC50,[6],> 8.50
same,"viability, T/C",[7],37.9%
same,"viability, T/C",[8],34.3%
same,"viability, T/C",[9],19.9%
same,"viability, T/C",[10],27%
same,"viability, T/C",[11],19.2%
same,"viability, T/C",[12],9.69%
same,"viability, T/C",[13],15.3%
same,"viability, T/C",[14],11.6%
same,"viability, T/C",[15],10.8%
same,"viability, T/C",[16],12.3%
same,"viability, T/C",[17],12%
same,"viability, T/C",[18],9.95%
same,"viability, T/C",[19],9.77%
same,"viability, T/C",[20],10%
same,"viability, T/C",[21],16.4%
same,"viability, T/C",[22],12.3%
same,"viability, T/C",[23],11.2%
same,"viability, T/C",[24],7.94%
same,"viability, T/C",[25],13.3%
same,"viability, T/C",[26],11%
same,"viability, T/C",[27],11.1%
same,"viability, T/C",[28],9.53%
same,"viability, T/C",[29],9.66%
same,"viability, T/C",[30],12.4%
same,"viability, T/C",[31],11.5%
same,"viability, T/C",[32],10.9%
same,"viability, T/C",[33],12.8%
same,"viability, T/C",[34],11.3%
same,"viability, T/C",[35],7.92%
same,"viability, T/C",[36],10.5%
same,"viability, T/C",[37],15.4%
same,"viability, T/C",[38],12.6%
same,"viability, T/C",[39],11.2%
same,"viability, T/C",[40],9.08%
same,"viability, T/C",[41],8.09%
same,"viability, T/C",[42],10.1%
C=CC(=O)N1CCN(c2nc(OCC3CCCN3C)nc3c(F)c(-c4nc(N)cc(C)c4C(F)(F)F)c(Cl)cc23)C(C)C1 (stereo unspecified),"viability, T/C",compound 0.00316 µM,18.3% [middle of 12 runs]
same,"viability, T/C",compound 0.01 µM,13.4% [middle of 12 runs]
same,"viability, T/C",compound 0.0316 µM,11.5% [middle of 12 runs]
same,"viability, T/C",compound 0.1 µM,9.89% [middle of 12 runs]
same,"viability, T/C",compound 0.316 µM,10.8% [middle of 12 runs]
same,"viability, T/C",compound 1 µM,10.7% [middle of 11 runs]
same,pIC50,"compound alone, run of 07/15/2024",> 8.50
same,pIC50,curve of compound,> 8.50
CCn1c(-c2cccnc2C(C)OC)c2c3cc(ccc31)N1CCOC(CC(NC(=O)C(C(C)C)N(C)C(=O)C3(F)CCN(C(=O)C#CC(C)(C)N(C)C)CC3)C(=O)N3CCCC(N3)C(=O)OCC(C)(C)C2)C1 (stereo unspecified),"viability, T/C",compound 0.000949 µM,41.9% [middle of 8 runs]
same,"viability, T/C",compound 0.003 µM,13.8% [middle of 8 runs]
same,"viability, T/C",compound 0.00949 µM,11.6% [middle of 7 runs]
same,"viability, T/C",compound 0.03 µM,12.7% [middle of 8 runs]
same,"viability, T/C",compound 0.0949 µM,14.9% [middle of 8 runs]
same,"viability, T/C",compound 0.3 µM,14% [middle of 8 runs]
same,pIC50,"compound alone, run of 07/09/2024",> 9.02
CCC(CC)c1cc(NC2CCC(N)C2)n2nccc2n1 (stereo unspecified) + CCn1c(-c2cccnc2C(C)OC)c2c3cc(ccc31)N1CCOC(CC(NC(=O)C(C(C)C)N(C)C(=O)C3(F)CCN(C(=O)C#CC(C)(C)N(C)C)CC3)C(=O)N3CCCC(N3)C(=O)OCC(C)(C)C2)C1,pIC50,[1],7.50
same,pIC50,[2],> 7.50
same,pIC50,[3],> 7.50
same,pIC50,[4],> 7.50
same,pIC50,[5],> 7.50
same,pIC50,[6],> 7.50
same,"viability, T/C",[9],37.5%
same,"viability, T/C",[10],40.4%
same,"viability, T/C",[11],39.2%
same,"viability, T/C",[12],61.9%
same,"viability, T/C","second compound 0.000949 µM, first compound 3.16 µM",2.95%
same,"viability, T/C","second compound 0.000949 µM, first compound 10 µM",2.43%
same,"viability, T/C",[15],14.9%
same,"viability, T/C",[16],14.6%
same,"viability, T/C",[17],13%
same,"viability, T/C",[18],20.1%
same,"viability, T/C","second compound 0.003 µM, first compound 3.16 µM",3.32%
same,"viability, T/C","second compound 0.003 µM, first compound 10 µM",3.8%
same,"viability, T/C",[21],15.2%
same,"viability, T/C",[22],12.3%
same,"viability, T/C",[23],15%
same,"viability, T/C",[24],20.3%
same,"viability, T/C","second compound 0.00949 µM, first compound 3.16 µM",2.22%
same,"viability, T/C","second compound 0.00949 µM, first compound 10 µM",3.83%
same,"viability, T/C",[27],12.6%
same,"viability, T/C",[28],12.1%
same,"viability, T/C",[29],15.5%
same,"viability, T/C",[30],13.3%
same,"viability, T/C","second compound 0.03 µM, first compound 3.16 µM",1.81%
same,"viability, T/C","second compound 0.03 µM, first compound 10 µM",3.54%
same,"viability, T/C",[33],12.4%
same,"viability, T/C",[34],13.6%
same,"viability, T/C",[35],15.6%
same,"viability, T/C",[36],13.9%
same,"viability, T/C","second compound 0.0949 µM, first compound 3.16 µM",1.94%
same,"viability, T/C","second compound 0.0949 µM, first compound 10 µM",3.52%
same,"viability, T/C",[39],11.8%
same,"viability, T/C",[40],14.9%
same,"viability, T/C",[41],12.4%
same,"viability, T/C",[42],9.04%
same,"viability, T/C","second compound 0.3 µM, first compound 3.16 µM",2.28%
same,"viability, T/C","second compound 0.3 µM, first compound 10 µM",3.42%
